Patent US9061030B2, “sGC stimulators” (IRONWOOD PHARMACEUTICALS, INC., priority 2010, dated 2015)

Legend:
[1] = biological target: T1, soluble guanylate cyclase (sGC) (Homo sapiens, UniProt Q02108+Q02153); assay: sGC-HEK-cGMP assay; assay type: cell-based; details: HEK293 cells, 10 μM SNP, percentage of sGC activity obtained with positive control BAY 41-2272 (= 100%); for Emax at 10 µM: compound at 10 μM; for Emax at 30 µM: compound at 30 μM
T1 construct: endogenously expressing soluble guanylate cyclase (sGC); endogenous in cells; host or cells: HEK293
T1 sequence (Q02153 1-619): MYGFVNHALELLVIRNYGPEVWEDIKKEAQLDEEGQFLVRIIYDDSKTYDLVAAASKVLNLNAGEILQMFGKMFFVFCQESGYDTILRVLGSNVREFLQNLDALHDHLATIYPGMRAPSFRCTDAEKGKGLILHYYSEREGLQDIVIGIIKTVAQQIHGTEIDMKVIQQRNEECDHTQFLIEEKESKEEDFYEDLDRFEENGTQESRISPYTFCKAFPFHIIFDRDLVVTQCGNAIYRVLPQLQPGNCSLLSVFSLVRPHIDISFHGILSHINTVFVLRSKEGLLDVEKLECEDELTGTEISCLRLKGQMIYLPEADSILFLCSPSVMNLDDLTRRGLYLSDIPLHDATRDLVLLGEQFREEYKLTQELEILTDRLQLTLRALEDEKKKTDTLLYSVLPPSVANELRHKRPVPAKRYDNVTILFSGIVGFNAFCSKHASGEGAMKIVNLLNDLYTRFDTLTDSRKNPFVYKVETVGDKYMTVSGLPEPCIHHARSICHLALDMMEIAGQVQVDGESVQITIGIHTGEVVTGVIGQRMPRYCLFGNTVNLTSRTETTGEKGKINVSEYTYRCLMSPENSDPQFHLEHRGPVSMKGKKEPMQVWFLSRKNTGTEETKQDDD
T1 sequence (Q02108 1-690): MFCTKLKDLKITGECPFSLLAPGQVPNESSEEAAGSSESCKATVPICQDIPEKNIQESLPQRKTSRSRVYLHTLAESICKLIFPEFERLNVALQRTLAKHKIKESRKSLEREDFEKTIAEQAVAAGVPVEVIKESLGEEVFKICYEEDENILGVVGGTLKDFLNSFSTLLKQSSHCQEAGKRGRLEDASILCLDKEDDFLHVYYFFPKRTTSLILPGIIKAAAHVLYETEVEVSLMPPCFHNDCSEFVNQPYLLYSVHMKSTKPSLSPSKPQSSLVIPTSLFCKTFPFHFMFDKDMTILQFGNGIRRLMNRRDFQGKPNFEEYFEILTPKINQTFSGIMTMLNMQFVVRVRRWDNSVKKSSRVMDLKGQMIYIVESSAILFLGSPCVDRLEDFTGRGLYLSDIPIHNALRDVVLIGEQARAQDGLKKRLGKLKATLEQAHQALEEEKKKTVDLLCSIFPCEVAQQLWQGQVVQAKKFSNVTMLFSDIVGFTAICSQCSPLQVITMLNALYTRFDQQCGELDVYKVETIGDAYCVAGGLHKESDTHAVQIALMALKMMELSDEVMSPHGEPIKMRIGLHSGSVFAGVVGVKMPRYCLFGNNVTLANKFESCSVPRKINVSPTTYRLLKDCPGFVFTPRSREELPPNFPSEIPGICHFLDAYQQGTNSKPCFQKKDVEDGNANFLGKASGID
Experimental: Human embryonic kidney cells (HEK293), endogenously expressing soluble guanylate cyclase (sGC), were used to evaluate the activity of the test compounds. Compounds stimulating the sGC receptor should cause an increase in the intracellular concentration of cGMP. HEK 293 cells were seeded in Dulbecco's Modification of Eagle's Medium supplemented with fetal bovine serum (10% final) and L-glutamine (2 mM final) in a 200 μL volume at a density of 1×10^5 cells/well in a poly-D-lysine coated 96 well flat bottom plate and grown overnight at 37° C. Medium was aspirated and cells were washed with 1× Hank's Buffered Saline Salt Solution (200 μL). Cells were then incubated for 15 minutes at 37° C. with 0.5 mM 3-isobutyl-1-methylxanthine (200 μL). Test article was then added to the assay mixture (2 μL) and incubated in the presence of 10 μM Sodium Nitroprusside (SNP) at 37° C. for 10 minutes. After the 10 minute incubation, the assay mixture was aspirated and 0.1M HCl (200 μL) was added to the cells. The plate was incubated at 4° C. for 30 minutes in the 0.1M HCl to stop the reaction and lysed the cells. The plates were then centrifuged at 1,200 g for 5 minutes at room temperature. Supernatants were collected and transferred to a new flat bottom 96 well plate for analysis. Vehicle controls were carried out using DMSO (1%). A known sGC stimulator, BAY 41-2272, was used as the positive control.
Samples were diluted with an equal volume of 1 M Ammonium Acetate (pH 7) to neutralize samples for better chromatography. A 2×cGMP standard curve was prepared in 0.1 M HCl and then diluted with an equal volume of 1 M Ammonium Acetate, with the following final concentrations in nM: 1024, 512, 256, 128, 64, 32, 16, 8, 4, 2, 1.cGMP concentrations were determined from each sample using the LC/MS conditions (Table 2 below) and calculated standard curve. EC50 values were calculated from concentration-response curves generated with GraphPad Prism Software.
The biological activities of some of the compounds according to Formula IA or Formula IB determined with the sGC-HEK assay are summarized in Table 3 below.

[2] = biological target: T2, Human soluble guanylate cyclase enzyme (hsGC) (Homo sapiens, UniProt Q02108+Q02153); assay: Purified human sGC enzyme activity assay (with or without SNP); assay type: biochemical; details: 30 μM compound; for sGC Enzyme Activity Increase at 30 μM with SNP: 1 μM SNP, specific activity vs DMSO and SNP; for sGC Enzyme Activity Increase at 30 μM without SNP: specific activity vs DMSO control
T2 construct: purchased Enzo Inc. ALX-201-177
T2 sequence (Q02153 1-619): T1 sequence (Q02153 1-619)
T2 sequence (Q02108 1-690): T1 sequence (Q02108 1-690)
Experimental: Human soluble guanylate cyclase enzyme (hsGC) obtained from Enzo Inc. (P/N: ALX-201-177) was used to evaluate the activity of test compounds. The assay reactions contained 0.1 M Tris (pH 8.0), 0.5 mg/mL BSA (pH 8.0), 2 mM DTT, 2 mM MgCl2, 300 μM GTP, 1 mM 3-isobutyl-1-methylxanthine (IBMX) and 5 ng human soluble guanylate cyclase enzyme. Test compounds in DMSO were then added (2 μL, 10 or 30 μM final concentration) and incubated (200 μL, 96-well plate format) at 37° C. for 30 minutes. The controls were carried out using 2 μL DMSO. After the 30 minute incubation, the reaction was stopped with the addition of 200 μL of cold methanol. The plate was then centrifuged at 3,200 rpm for 10 minutes at room temperature. Supernatants (200 μL) were collected and transferred to a new 96 well plate for analysis.
An 8 point cGMP (Sigma-Aldrich P/N: G6129) standard curve was prepared in assay buffer ranging from 0.156-20 μM. Samples for the cGMP standard curve were then diluted with an equal volume of methanol resulting in final cGMP concentrations of 0.078-10 μM.
The cGMP standard curve was generated using GraphPad Prism Software.
Calculations: Specific Activity was determined by the amount of cGMP formed (nmoles) per mg of sGC per min. Enzyme activity “fold-change” was calculated by dividing the Specific Activity for a test compound by the Specific Activity of DMSO control.
The enzymatic activity fold-change of the purified human sGC enzyme determined in the presence of each of the test compounds individually at 10 or 30 μm without the addition of sodium nitroprusside (SNP), a nitric oxide donor, is presented in Table 5.
Enzyme assays were also performed as described above, but in the presence of 1 μM sodium nitroprusside (SNP). Enzymatic activity fold-changes are reported for selected test compounds in the presence of both SNP and the test compound. These were calculated by dividing the specific activity (activity increase) for the test compound dissolved in DMSO and SNP over the specific activity for the mixture of DMSO and SNP.

SMILES	Emax at 10 µM [1]	Emax at 30 µM [1]	sGC Enzyme Activity Increase at 30 μM with SNP [2]	sGC Enzyme Activity Increase at 30 μM without SNP [2]
Fc1ccccc1Cn1nc(-c2ncccn2)nc1-c1ccccc1 [Compound I-27]	0 to 5%	0 to 5%	B (B = 1 to <2 fold increase)	B (B = 1 to <2 fold increase)
Cc1nc(-c2ncccn2)nn1Cc1ccccc1F [Compound I-28]	0 to 5%	0 to 5%	B (B = 1 to <2 fold increase)	B (B = 1 to <2 fold increase)
Fc1ccccc1Cn1nc(-c2ccccn2)nc1-c1ncccn1 [Compound I-31]	0 to 5%	0 to 5%	C (C = 2 to <5 fold increase)	B (B = 1 to <2 fold increase)
Fc1ccccc1Cn1nc(-c2ncccn2)nc1-c1ccccn1 [Compound I-32]	0 to 5%	10 to 20%	C (C = 2 to <5 fold increase)	C (C = 2 to <5 fold increase)
COC(=O)c1nc(-c2ccccn2)nn1Cc1ccccc1F [Compound I-35, methyl 1-(2-fluorobenzyl)-3-(pyridin-2-yl)-1H-1,2,4-triazole-5-carboxylate]	0 to 5%	0 to 5%	C (C = 2 to <5 fold increase)	B (B = 1 to <2 fold increase)
Fc1ccccc1Cn1nc(-c2ccccn2)nc1-c1nnco1 [Compound I-42, 2-(1-(2-fluorobenzyl)-3-(pyridin-2-yl)-1H-1,2,4-triazol-5-yl)-1,3,4-oxadiazole]	0 to 5%	5 to 10%	C (C = 2 to <5 fold increase)	B (B = 1 to <2 fold increase)
Fc1ccccc1Cn1nc(-c2cocn2)nc1-c1ncccn1 [Compound I-45]	0 to 5%	0 to 5%	B (B = 1 to <2 fold increase)	B (B = 1 to <2 fold increase)
Fc1ccccc1Cn1nc(-c2ccccn2)nc1-n1ccnc1 [Compound I-49, 2-(1-(2-fluorobenzyl)-5-(1H-imidazol-1-yl)-1H-1,2,4-triazol-3-yl)pyridine]	0 to 5%	5 to 10%	B (B = 1 to <2 fold increase)	B (B = 1 to <2 fold increase)

Now from value to molecule:

Emax at 10 µM [1]	Emax at 30 µM [1]	sGC Enzyme Activity Increase at 30 μM with SNP [2]	sGC Enzyme Activity Increase at 30 μM without SNP [2]	SMILES
10 to 20%	10 to 20%	D (D = 5 to <10 fold increase)	C (C = 2 to <5 fold increase)	Fc1ccccc1Cn1nc(-c2nccs2)nc1-c1ccccn1 [Compound I-26]
0 to 5%	0 to 5%	C (C = 2 to <5 fold increase)	B (B = 1 to <2 fold increase)	Fc1ccccc1Cn1nc(-c2nccs2)nc1-c1ncccn1 [Compound I-29]
0 to 5%	0 to 5%	B (B = 1 to <2 fold increase)	B (B = 1 to <2 fold increase)	Fc1ccccc1Cn1nc(-c2cc(Br)ccn2)nc1-c1nccs1 [Compound I-36, 2-(3-(4-bromopyridin-2-yl)-1-(2-fluorobenzyl)-1H-1,2,4-triazol-5-yl)thiazole]
10 to 20%	20 to 40%	D (D = 5 to <10 fold increase)	C (C = 2 to <5 fold increase)	Fc1ccccc1Cn1nc(-c2nccs2)nc1-c1cc(Br)ccn1 [Compound I-37, 2-(5-(4-bromopyridin-2-yl)-1-(2-fluorobenzyl)-1H-1,2,4-triazol-3-yl)thiazole]
5 to 10%	5 to 10%	C (C = 2 to <5 fold increase)	B (B = 1 to <2 fold increase)	Fc1ccc(-c2nc(-c3nccs3)nn2Cc2ccccc2F)nc1 [Compound I-39]
0 to 5%	0 to 5%	B (B = 1 to <2 fold increase)	B (B = 1 to <2 fold increase)	Nc1ccnc(-c2nc(-c3nccs3)nn2Cc2ccccc2F)c1 [Compound I-47]
20 to 40%	20 to 40%	E (E = 10 to <20 fold increase)	C (C = 2 to <5 fold increase)	Fc1ccccc1Cn1nc(-c2cc(Br)ccn2)nc1-c1cscn1 [Compound I-51, 4-(3-(4-bromopyridin-2-yl)-1-(2-fluorobenzyl)-1H-1,2,4-triazol-5-yl)thiazole]
